US7718186B2, “2-alkoxy-6-alkylphenyl-substituted spirocyclic tetramic acid derivatives” (Bayer CropScience AG, priority 2004, dated 2010)

What was measured:
Format in all cases: in vivo
Setaria viridis [1] = test: Herbicidal post-emergence action; conditions: greenhouse, 320 g of a.i./ha
Procedure: (§1) 2. Herbicidal Post-emergence Action
(§2) Seeds of monocotyledonous and dicotyledonous weed and crop plants are placed into sandy loam in wood fiber pots, covered with soil and cultivated in the greenhouse under good growth conditions. Two to three weeks after sowing, the test plants are treated at the one-leaf stage. The test compounds, formulated as wettable powders (WP), are then, in various dosages with a water application rate of 600 l/ha (converted), with 0.2% of wetting agent added, sprayed onto the green parts of the plants. After the test plants have been kept in the greenhouse under optimum growth conditions for about 3 weeks, the effect of the preparations is rated visually in comparison to untreated controls (herbicidal effect in percent (%): 100% effect=the plants have died, 0% effect=like control plants).

Echinocloa crus-galli = test: Herbicidal post-emergence action; conditions: greenhouse, 320 g of a.i./ha
Procedure: as §1, §2

Lolium multiflorum [2] = test: Herbicidal post-emergence action; conditions: greenhouse, 320 g of a.i./ha
Procedure: as §1, §2

Setaria viridis [3] = test: Herbicidal pre-emergence action; conditions: greenhouse, 320 g of a.i./ha
Text: (§3) 1. Herbicidal Pre-emergence Action
(§4) Seeds of monocotyledonous and dicotyledonous weed and crop plants are placed into sandy loam in wood fiber pots and covered with soil. The test compounds, formulated in the form of wettable powders (WP) are then, as an aqueous suspension with a water application rate of 600 l/ha (converted), with 0.2% of wetting agent added, applied to the surface of the covering soil in various dosages.
(§5) After the treatment, the pots are placed in the greenhouse and kept under good growth conditions for the test plants. The visual assessment of the emergence damage on the test plants is carried out after a trial period of 3 weeks by comparison with untreated controls (herbicidal effect in percent (%): 100% effect=the plants have died, 0% effect=like control plants).

Avena sativa = test: Herbicidal pre-emergence action; conditions: greenhouse, 320 g of a.i./ha
Text: as §3, §4, §5

Lolium multiflorum [4] = test: Herbicidal pre-emergence action; conditions: greenhouse, 320 g of a.i./ha
Text: as §3, §4, §5

Summer wheat = test: Container trials with cereal in a greenhouse, with and without safener (post-emergence); conditions: crop damage, 28 days after application
Procedure: (§6) Herbicidal Post-emergence Action
(§7) Seeds of monocotyledonous and dicotyledonous weed and crop plants are placed into sandy loam in wood fiber pots or in plastic pots, covered with soil and cultivated in a greenhouse, during the vegetation period also outdoors outside of the greenhouse, under good growth conditions. Two to three weeks after sowing, the test plants are treated at the one- to three-leaf stage. The test compounds, formulated as wettable powders (WP) or liquid (EC) are, in various dosages with a water application rate of 300 l/ha (converted), with wetting agent (0.2 to 0.3%) added, sprayed onto the plants and the surface of the soil. Three to four weeks after the treatment of the test plants, the effect of the preparations is rated visually in comparison to untreated controls (herbicidal effect in percent (%):
(§8) (100% effect=the plants have died, 0% effect=like control plants).
(§9) If it is additionally to be tested as to whether safeners can improve the plant compatibility of test substances in the case of crop plants, the following options are used for applying the safener: • seeds of the crop plants are, before sowing, dressed with the safener substance (amount of safener stated in percent, based on the weight of the seed) • before the application of the test substances, the crop plants are sprayed with the safener at a certain application rate per hectare (usually 1 day before the application of the test substances) • the safener is applied together with the test substance as a tank mix (amount of safener stated in g/ha or as a ratio, based on the herbicide).
(§10) By comparing the effect of the test substances on crop plants without or with safener treatment, it is possible to assess the effect of the safener substance.
(§11) Container Trials with Cereal in a Greenhouse
(§12) Mefenpyr 1 Day Prior to Herbicide Application

Summer barley = test: as above; conditions: crop damage; 50 g of a.i./ha; 28 days after application
Procedure: as §6, §7, §8, §9, §10, §11, §12

SMILES | Setaria (herbicidal effect in percent) (Setaria viridis [1]) | Echinochloa (herbicidal effect in percent) (Echinocloa crus-galli) | Lolium (herbicidal effect in percent) (Lolium multiflorum [2]) | Setaria (herbicidal effect in percent) (Setaria viridis [3]) | Avena (herbicidal effect in percent) (Avena sativa) | Lolium (herbicidal effect in percent) (Lolium multiflorum [4]) | Summer wheat observed (%) (Summer wheat; 12.5 g of a.i./ha) | Summer wheat observed (%) (Summer wheat; 25 g of a.i./ha) | Summer wheat observed (%) (Summer wheat; 50 g of a.i./ha) | Summer barley observed (%) (Summer barley)
CCc1cc(C)cc(OC)c1C1=C(O)C2(CCC(OC)CC2)NC1=O (single isomer, unassigned) [Example I-a-6] | 90 | 100 | 100 | 100 | 100 | 100 | – | – | – | –
CCc1cc(C)cc(OC)c1C1=C(O)C2CCCN2C1=O (stereo not shown) [Example I-a-2] | 100 | 100 | 100 | – | – | – | 40% | 60% | 95% | 90%
